Test [1] has as its target MC5-R (Homo sapiens, UniProt P33032). Kind of test: MC5-R binding.
Test [2] deals with T1, melanocortin MC-4 receptor (Homo sapiens, UniProt P32245).
T1 construct: purchased Receptor Biology Inc
Kind of test: Melanocortin MC-4 Receptor Binding Assay (SPA). The method in brief: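 Membranes bound to WGA SPA beads were incubated 16 h at 25° C with 40 pM ¹²⁵I-NDP-MSH and test compound (1 mM stock in 30% DMSO-HEPES pH 7.4). Nonspecific binding set with 1 μM NDP-MSH or α-MSH; percent inhibition from bound cpm.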

The subject of test [3] is human sebocytes. Put plainly: Nile red evaluation of lipid accumulation in sebocytes. The test is classed as cell-based. The following applies: for inhibition at 0.4 µM: read-out: % Inh 0.4 μM (lipid accumulation, Nile red); for inhibition at 0.8 µM: read-out: % Inh 0.8 μM (lipid accumulation, Nile red). Here is the method: The cells were incubated at 37° C. for 24 hours prior to their use as a feeder layer for sebocytes. Human sebocytes were isolated from Dermatome shavings of postoperative pieces of human skin at 0.4-0.8 mm depths (this part of the skin was previously shown to be enriched in sebaceous glands). […] This medium was changed every 3 days (Phase III). Hormones, mixture of hormones i.e. bovine pituitary extract or compounds to be tested were added to the culture at the beginning of phase III. […] The evaluation of lipid accumulation completed using the Nile red method. This method relies on visualization of neutral lipids by Nile red and quantitation by reading of fluorescence at 535 nm excitation, 580 nm emission using a plate reader. The lipid synthesis was evaluated by radioactive labeling using ^14C acetate and quantified by Bio Rad Phosphoimager (Molecular Imager, FX) using 4.1 Software. […] Quantitation of accumulation/inhibition of neutral lipids in sebocytes was accomplished by Nile red binding assay. Briefly, following exposure of sebocytes to test compounds, the cells were allowed to interact with 1 μM Nile red in Hanks buffered saline solution containing DMSO and Pluronic F127. After 4 hours of incubation, washing and incubation overnight, the fluorescence was read at 535 excitation and 580 emission using a fluorescence plate reader. […] Following the procedure described above, select compounds of the present invention were tested for visual and Nile red evaluation of lipid accumulation, with results as listed in Table 9.

Test [4] concerns human sebocytes. Kind of test: Visual observation of lipid granule formation in sebocytes. The test is classed as cell-based. Here is the method: Semiconfluent cultures of 3T3 mouse fibroblasts (Swiss Albino mouse, ATCC CCL-92) were treated with mitomycin C (4 μg/ml) for 3 hours, trypsinized and seeded at a density of 2.5×10^5/9.5 cm^2 tissue culture plate in Dulbeccos Minimal Essential Medium (DMEM) containing 10% Colorado Calf Serum, PNC (100U/ml), STM (100 μg/ml), L glutamine (0.3 mg/ml), sodium pyruvate (1 mM) and nonessential amino acids (100 μM). The cells were incubated at 37° C. for 24 hours prior to their use as a feeder layer for sebocytes.
Human sebocytes were isolated from Dermatome shavings of postoperative pieces of human skin at 0.4–0.8 mm depths (this part of the skin was previously shown to be enriched in sebaceous glands). Shavings so obtained were treated with 1% Dispase in Iscoves medium containing 10% serum for 20 min at 37° C. The tissue was then placed in 0.3% trypsin/1% EDTA in Phosphate Buffered Saline (PBS) for 10 minutes at 37° C. Following this incubation the cells were gently scraped from the tissue in Growth medium (GM) containing DMEM/F12 media mixture (3:1), supplemented with 8% heat inactivated FBS, 2% heat inactivated human serum (HS), 1 mM sodium pyruvate, epidermal growth factor (10 ng/ml), insulin (10 μg/ml), hydrocortisone (0.4 μg/ml) and +/−cholera toxin (100 μg/ml), L-glutamine and antibiotics. Cells so obtained were filtered through nylon mesh ([…]), centrifuged at 750 RPM, re-suspended in GM and counted.
Resultant cells from the above isolation procedure were plated on the 3T3 feeder layers at 2×10^5/9.5 cm^2 in growth medium and maintained at 37° C. and 5% CO2 for 3 days (Phase I). Following the initial growth period they were transferred to a transition medium (TM) that consisted of DMEM/F12 media supplemented with 1 mM sodium pyruvate, insulin ([…]), transferrin ([…]) and selenium (5.5 μg/ml) (ITS), 2% heat inactivated FBS and 2% heat inactivated human serum as well as +/−cholera toxin (ch.t.) (100 μg/ml), L-glutamine and antibiotics (Phase II). Three days later the cells were changed to differentiation medium (DM), DMEM/F12 supplemented with ITS, 3,3′,5-triido-L-thyronine sodium (3 nM), 1%(v/v) trace element mix and the choice of differentiation agent i.e. bovine pituitary extract (10 μg/ml). This medium was changed every 3 days (Phase III).
Hormones, mixture of hormones i.e. bovine pituitary extract or compounds to be tested were added to the culture at the beginning of phase III. Two criteria were used to evaluate the effect of these materials on sebaceous cultures: 1) visual observations and 2) evaluation of sebaceous lipid accumulation and synthesis. The evaluation of lipid accumulation completed using the Nile red method. This method relies on visualization of neutral lipids by Nile red and quantitation by reading of fluorescence at 535 nm excitation, 580 nm emission using a plate reader. The lipid synthesis was evaluated by radioactive labeling using ^14C acetate and quantified by Bio Rad Phosphoimager (Molecular Imager, FX) using 4.1 Software.
Quantitation of accumulation/inhibition of neutral lipids in sebocytes was accomplished by Nile red binding assay. Briefly, following exposure of sebocytes to test compounds, the cells were allowed to interact with 1 μM Nile red in Hanks buffered saline solution containing DMSO and Pluronic F127. After 4 hours of incubation, washing and incubation overnight, the fluorescence was read at 535 excitation and 580 emission using a fluorescence plate reader.
Following the procedure described above, select compounds of the present invention were tested for visual and Nile red evaluation of lipid accumulation, with results as listed in Table 9.
Following the procedure described above, select compounds of the present invention were tested for their inhibitory effect on differentiation of human sebocytes. […]

Structures are written as SMILES.

T1 sequence (P32245 whole entry): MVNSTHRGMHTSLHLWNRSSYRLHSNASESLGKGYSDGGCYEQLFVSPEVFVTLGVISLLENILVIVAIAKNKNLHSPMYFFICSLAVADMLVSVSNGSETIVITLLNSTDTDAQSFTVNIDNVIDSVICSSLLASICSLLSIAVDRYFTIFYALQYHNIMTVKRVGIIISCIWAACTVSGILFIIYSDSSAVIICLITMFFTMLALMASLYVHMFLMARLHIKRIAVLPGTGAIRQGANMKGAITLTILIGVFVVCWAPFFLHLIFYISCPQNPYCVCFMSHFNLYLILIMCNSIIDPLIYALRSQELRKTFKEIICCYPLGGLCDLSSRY
MC5-R, sequence (P33032 whole entry): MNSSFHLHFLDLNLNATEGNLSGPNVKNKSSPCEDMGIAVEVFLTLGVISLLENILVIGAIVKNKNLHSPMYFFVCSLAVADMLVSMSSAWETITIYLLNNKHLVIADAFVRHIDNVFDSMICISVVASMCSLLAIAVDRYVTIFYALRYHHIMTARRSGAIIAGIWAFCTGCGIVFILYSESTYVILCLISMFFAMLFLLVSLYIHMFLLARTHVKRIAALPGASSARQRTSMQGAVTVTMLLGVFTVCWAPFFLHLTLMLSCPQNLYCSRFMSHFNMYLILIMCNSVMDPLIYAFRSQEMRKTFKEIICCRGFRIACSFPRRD

As for `COc1ccccc1-c1nc(Nc2ccccc2)s[n+]1-c1ccccc1OC.[Br-]` [Compound 74, 2-(2-methoxyphenyl)-3-(2-methoxyphenyl)-5-phenylamino-[1,2.4]thiadiazol-2-ium], in test [1], the concentration for half-maximal inhibition (IC50) was determined as 154 nM. Besides, the IC50 in test [2] was determined as 194 nM. In test [3], the inhibition at 0.4 µM turned out to be 72% and the inhibition at 0.8 µM amounted to 100%. In test [4], the “Visual* 0.4 μM (inhibition of lipid granule formation)” value is given as “+++ (+++ = 75%)” and the “Visual* 0.8 μM (inhibition of lipid granule formation)” value is “++++ (++++ = 100%)”. Besides, the “lipid granules in sebocyte cultures (visual, stained cultures)” value in test [4] (seven day treatment) is listed as “complete disappearance of lipid granules”.
For the compound `c1ccc(CNc2nc(-c3ccccc3)[n+](-c3ccccc3)s2)cc1` [Compound 84], in test [1], the “MC5-R IC50” value is on record as “No binding”. In test [3], the inhibition at 0.4 µM was found to be 0% and the inhibition at 0.8 µM amounted to 0%. For the same compound, in test [4], the “Visual* 0.4 μM (inhibition of lipid granule formation)” value stood at 0 and the “Visual* 0.8 μM (inhibition of lipid granule formation)” value stood at 0.
Take `COc1ccc(N(C)c2nc(-c3ccccc3)[n+](-c3ccc(C)cc3)s2)cc1` [Compound 50]: in test [1], the “MC5-R IC50” value is “No binding”. In test [2], this compound came in with an IC50 of 30000 nM. Further, in test [3], the inhibition at 0.4 µM was 0% and the inhibition at 0.8 µM was 0%. In test [4], the “Visual* 0.4 μM (inhibition of lipid granule formation)” value is reported as 0 and the “Visual* 0.8 μM (inhibition of lipid granule formation)” value amounted to 0.
In turn, `COc1ccccc1-[n+]1sc(Nc2ccc(C)cc2)nc1-c1ccccc1.[Br-]` [Compound 31, 2-(2-methoxyphenyl)-3-phenyl-5-p-tolylamino-[1,2,4]thiadiazol-2-ium] showed a half-inhibitory concentration (IC50) in test [2] of 22 nM.

A word on the IC50: it is the concentration that gives 50% inhibition.

Values taken from patent US7049331B2, “1,2,4-thiadiazole derivatives as melanocortin receptor modulators” (Ortho-McNeil Pharmaceutical, Inc., priority 2001, dated 2006).
